Assay results taken from patent publication US8466172B2, “Stabilization of hypoxia inducible factor (HIF) alpha” (FibroGen, Inc., priority 2001, dated 2013).
“And” between values parts separate entries of the source, which are not always exact repeats. Equal values may be shown once.

What was measured:
[1] = system: vascular endothelial growth factor (VEGF); experiment: VEGF expression in conditioned media, QUANTIKINE immunoassay; assay type: cell-based, human; details: HFF, 293A and Hep3B cells
Method: When cell layers reached confluence, the media was replaced with OPTI-MEM media (Invitrogen Life Technologies, Carlsbad Calif.) and cell layers were incubated for approximately 24 hours in 20% O2, 5% CO2 at 37° C. Compound of the invention (one of compounds A to O) or DMSO (0.5 to 1%) was then added to existing medium, and incubation was continued overnight.
Conditioned media collected from cell cultures grown as in Example 1 was analyzed for vascular endothelial growth factor (VEGF) expression using a QUANTIKINE immunoassay (R&D Systems) according to the manufacturer's instructions. […] Values on the y-axis represent fold-induction relative to control and are reported on a log2 scale, such that a value of 1 represents 2-fold induction.

[2] = system: Wistar rats, acute myocardial infarction (AMI); experiment: Cardiac ischemia Experiment I, 4-week study after acute myocardial infarction; assay type: in vivo, rat; details: for fractional shortening: Treated-MI
Text: Seventy adult male Wistar rats (200-250 g) were anaesthetized and subjected to left coronary artery occlusion to produce acute myocardial infarction (AMI). Nine animals were subjected to identical surgery without coronary artery ligation. Twenty-four to forty-eight hours after surgery, electrocardiogram (ECG) electrodes were applied to the paws and a 15 MHz linear probe (Acuson Corp., Mountain View Calif.) was applied to the chest to obtain short axis transthoracic echocardiography (2DE) images at the mid-papillary muscle level. The probe was moved cephalad or caudad and angulated until clear endocardial visualization of the left ventricular cavity was detected. Images were obtained using the Sequoia ultrasound system (Acuson). Animals with less than 20% fractional shortening and regional wall motion abnormality on the 2DE were randomized to treatment with compound A (n=14) or vehicle (n=12). The sham controls were also randomized to treatment with compound A (n=4) or vehicle (n=5).
Animals were treated by gavage 2 times per day for the duration of the experiment with compound A at 50 mg/kg or with vehicle alone. Serum level of drug was determined periodically to establish that treated animals received sufficient and consistent amount of drug and that the measured levels were sufficient to inhibit prolyl 4-hydroxylase, a representative 2-oxoglutarate dioxygenase.
Serial 2DE images were obtained weekly. Three short axis 2DE digital clips containing 5 or more systolic and diastolic frames were captured and stored. Two observers blinded to treatment did measurements off-line. For the measurements, the digital images were slowed and frozen at end systole and end diastole. Two systolic and two diastolic frames from each of the three digital clips were measured by consensus and averaged. The anterior wall in systole (AWS) and diastole (AWD), posterior wall in systole (PWS) and diastole (PWD), and left ventricular end systolic (LVESD) and end diastolic (LVEDD) were measured according to the American Society for Echocardiology (ASE) leading-edge method. For consistency, measurements were done from the anterior to the posterior mid points of the left ventricular cavity and were randomly repeated to ensure reproducibility (reproducibility was approximately 96%).
At four weeks of treatment, in vivo hemodynamic measurements were determined, as described below, both before and after infusion (0.2 ml over 1 minute) of […] isoproterenol via the femoral vein. Hearts were then excised and weighed as described below.
(§1) To collect in vivo hemodynamic measurements, animals were anaesthetized and the right carotid artery was dissected free from surrounding tissues and canulated with an SPR-671 ultra-miniature pressure transducer (Millar Instruments, Inc., Houston Tex.). The catheter was then advanced into the left ventricle. After steady state was established, baseline heart rate (HR), developed pressure (DP), contractile index (CI), left ventricle systolic pressure (SBP) and end diastolic pressure (LVEDP), and maximal rate of pressure rise and fall (+dP/dt and −dP/dt, respectively) were recorded.
(§2) Following hemodynamic measurement, hearts were excised and weighed. Pieces of scarred myocardium, and right ventricle and left ventricle myocardium distant from the site of infarct were dissected out and weighed. Hydroxyproline and proline were determined by the method of Palmerini et al. (1985, J Chromatogr 339:285-92) except that L-azetidine-2-carboxylic acid (Sigma-Aldrich) was substituted for 3,4-dehydroproline as the internal standard.

[3] = system: Wistar rats, acute myocardial infarction (AMI); experiment: Cardiac ischemia Experiment I, 10-week study after acute myocardial infarction; assay type: in vivo, rat
Method: Alternatively, one hundred forty adult male Wistar rats (200-250 g) were anaesthetized and subjected to left coronary artery occlusion to produce AMI. Forty-eight hours after surgery, 2DE images were obtained and animals with a significant area of infarction were randomized to treatment with compound A (n=34) or vehicle (n=34).
Animals were treated by gavage 2 times per day for the duration of the experiment with compound A at 50 mg/kg or with vehicle alone. Serum level of drug was determined periodically to establish that treated animals received sufficient and consistent amount of drug and that the measured levels were sufficient to inhibit prolyl 4-hydroxylase.
Digital mid-papillary muscle and apical four chamber 2DE images were obtained biweekly on half of the animals in each group until week 8. Two observers blinded to treatment did measurements off-line. For the measurements, the digital images were slowed and frozen at end systole and end diastole. Two to three endocardial surfaces were traced in both the short axis and four chamber views and averaged. The left ventricular area in systole and diastole, ejection fraction, fractional area change, wall thickness, mitral peak E wave velocity, aortic peak velocity, and infarct size were measured.
After 10 weeks of treatment, in vivo hemodynamic measurements were determined and hearts were excised and weighed as described below.
as §1, §2

O=C(O)c1c[nH]c2c(ccc3cccnc32)c1=O [Compound A, 4-oxo-1,4-dihydro-[1,10]phenanthroline-3-carboxylic acid]
VEGF expression in conditioned media (FIG. 4A) [1]: increase in VEGF expression
Hydroxyproline/proline in infarct scar ([2]; 4 weeks post-MI): 0.34 ± 0.08
Hydroxyproline/proline in non-infarct left ventricular myocardium ([2]; 4 weeks post-MI): 0.12 ± 0.06
Hydroxyproline/proline in non-infarct right ventricular myocardium ([2]; 4 weeks post-MI): 0.13 ± 0.02
+dP/dt ([2]; 4 weeks post-MI, baseline): 9477 ± 581 mm Hg/sec
Developed pressure ([2]; 4 weeks post-MI, baseline): 133 ± 6 mm Hg
Systolic BP ([2]; 4 weeks post-MI, baseline): 143 ± 7 mm Hg
−dP/dt ([2]; 4 weeks post-MI, baseline): 9978 ± 827 mm Hg/sec
+dP/dt ([2]; 4 weeks post-MI, isoproterenol): 16830 ± 1195 mm Hg/sec
Developed pressure ([2]; 4 weeks post-MI, isoproterenol): 121 ± 9 mm Hg
Systolic BP ([2]; 4 weeks post-MI, isoproterenol): 130 ± 9 mm Hg
−dP/dt ([2]; 4 weeks post-MI, isoproterenol): 9234 ± 703 mm Hg/sec
fractional shortening ([2]; week 0 (baseline)): 10% and 10 ± 0.8%
fractional shortening ([2]; week 1): 17 ± 1%
fractional shortening ([2]; week 2): 20% and 20 ± 2%
fractional shortening ([2]; week 3): 21 ± 2%
fractional shortening ([2]; week 4): 21 ± 3%
increase in fractional shortening relative to baseline ([2]; week 2): 79%
deaths immediately following insult to the heart (FIG. 8) ([3]; 50 mg/kg gavage 2 times per day, n=34): no deaths
percent of treated group still alive ([3]; 8 weeks after myocardial infarction, 50 mg/kg gavage 2 times per day): over 90%
+dP/dt ([3]; 10 weeks post-MI): 6701 ± 331 mm Hg/sec
Developed pressure ([3]; 10 weeks post-MI): 97 ± 3 mm Hg
Hydroxyproline/proline in infarct scar ([3]; 10 weeks post-MI): 0.471 ± 0.024
Hydroxyproline/proline in non-infarct left ventricular myocardium ([3]; 10 weeks post-MI): 0.099 ± 0.025
Hydroxyproline/proline in non-infarct right ventricular myocardium ([3]; 10 weeks post-MI): 0.152 ± 0.044
Systolic BP ([3]; 10 weeks post-MI): 106 ± 4 mm Hg
−dP/dt ([3]; 10 weeks post-MI): 6395 ± 373 mm Hg/sec
left ventricular ejection fraction (LVEF) ([3]; at randomization): 33%
relative reduction in mortality ([3]; treated relative to untreated group, weeks 2 through 8): 77%
left ventricular ejection fraction (LVEF) relative to untreated controls (FIG. 10A) ([3]; weeks 2 through 8): statistically significant improvement
